Measured values reported in US6066628A, “Non-iron metalloporphyrins and methods of use” (Emory University, priority 1998, dated 2000).
Where two headings read alike, the source gives them in different places.

Experiments:
[1] = system: K. pneumoniae; test: Disc diffusion sensitivity test; type: cell-based, Klebsiella pneumoniae
[2] = system: S. aureus; test: Minimal bactericidal concentration; type: cell-based, Staphylococcus aureus; conditions: reduces plating efficiency more than 99.9%; minimal exposure to light
In short: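 Bacteria exposed to porphyrin derivatives above MIC as in the MIC assay, then plated on LB or LB+Tween 80 agar. MBC taken as the concentration reducing plating efficiency by more than 99.9%; light exposure kept minimal.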

[3] = system: Y. enterocolitica fur (H1852); type: cell-based; conditions: 1 μg/ml
[4] = system: Bacillus subtilis; test: Minimal inhibitory concentration; type: cell-based
[5] = system: S. pyogenes A; test: Disc diffusion sensitivity test; type: cell-based, Streptococcus pyogenes; conditions: disc ~50 μg MP
[6] = system: K. oxytoca; test: Disc diffusion sensitivity test; type: cell-based, Klebsiella oxytoca
[7] = system: Gram-negative bacteria
[8] = system: MDCK cells; test: Toxicity to mammalian cell monolayers; conditions: 0.5 mg in 1 mL DMEM; 24 hrs
[9] = system: C. freundii; test: Disc diffusion sensitivity test; type: cell-based, Citrobacter freundii
[10] = system: M. smegmatis
[11] = system: Mycobacterium bovis (BCG); type: cell-based
[12] = system: M. smegmatis LR222; test: Growth kinetics with Ga-PPIX; type: cell-based, Mycobacterium smegmatis; conditions: 1 μg/ml
[13] = system: E. coli; type: cell-based, Escherichia coli

In the case of C=CC1=C(C)C2=Cc3c(C=C)c(C)c4[n]3[Ga][n]3c(c(C)c(CCC(=O)O)c3=CC3=NC(=C4)C(C)=C3CCC(=O)O)=CC1=N2 [Ga-PPIX, Gallium (III) protoporphyrin IX chloride], the “diameter (mm) of the inhibition zone” value ([1]; K. pneumoniae, disc ~50 μg MP) is reported as 22 mm, the “sensitive strains / strains tested (inhibition zones larger or equal 20 mm)” value ([1]; Klebsiella pneumoniae, 50 μg disc) is reported as 9/13 and the “Minimal bactericidal concentration (MBC)” value [2] is reported as greater than 13. For the same compound, the “growth in presence of Ga-PPIX” value [3] was “completely prevented growth”, the MIC ([4]; B. subtilis 3G18, 20 to 24 hours (Table 5)) was 0.2 µg/mL and the MIC ([4]; Bacillus subtilis (Table 4)) was less than 0.1 µg/mL. The “diameter (mm) of the inhibition zone” value [5] was “-”, the “diameter (mm) of the inhibition zone” value ([6]; K. oxytoca, disc ~50 μg MP) was 21 mm and the “sensitive strains / strains tested (inhibition zones larger or equal 20 mm)” value ([6]; Klebsiella oxytoca, 50 μg disc) was 1/1. For the same compound, the spontaneous resistance [7] was “gave rise to spontaneous resistant colonies”, the “cytotoxic and/or morphological changes” value [8] was “No visible cytotoxic and/or morphological changes were observed” and the “diameter (mm) of the inhibition zone” value ([9]; C. freundii, disc ~50 μg MP) was 22 mm. The “sensitive strains / strains tested (inhibition zones larger or equal 20 mm)” value ([9]; Citrobacter freundii, 50 μg disc) was 4/4, the spontaneous resistance [10] was “did not produce spontaneous resistant mutants” and the MIC ([11]; M. bovis (BCG) (Table 4)) was 0.4 µg/mL. For the same compound, the MIC ([11]; M. bovis (BCG), two weeks (Table 5)) was 0.4 µg/mL, the “growth in presence of Ga-PPIX” value [12] was “completely prevented growth” and the MIC ([13]; E. coli DH-5 alpha hemA (Table 6)) was greater than 10 µg/mL. The sensitivity ([13]; E. coli K-12 (hemPR+) wild type and hemA mutant, with delta-aminolevulinic acid) was “fully sensitive”, the “TonB dependence of inhibition” value ([13]; E. coli TonB mutant overexpressing HemR) was “TonB activity is necessary” and the MIC ([13]; E. coli dh-5 alpha hemA(hemR+) (Table 6)) was less than 0.1 µg/mL. For the same compound, the “MIC Ga-PPIX” value ([13]; EC06 (MC1061, ΔccmABCDEFGH), NB) was greater than 20 µg/mL, the “MIC Ga-PPIX” value ([13]; EC06 (MC1061, ΔccmABCDEFGH), NBD[50 μM]) was greater than 20 µg/mL and the “MIC Ga-PPIX” value ([13]; GO103 (GR70N, ΔcydAB), NB) was 10 µg/mL. For the same compound, the “MIC Ga-PPIX” value ([13]; GO103 (GR70N, ΔcydAB), NBD[50 μM]) was 6.4 µg/mL, the “MIC Ga-PPIX” value ([13]; GP104 (GR70N, ΔcyoABCDE), NB) was 10 µg/mL and the “MIC Ga-PPIX” value ([13]; GP104 (GR70N, ΔcyoABCDE), NBD[50 μM]) was 10 µg/mL. For the same compound, the “MIC Ga-PPIX” value ([13]; GR70N w.t., NB) was 10 µg/mL, the “MIC Ga-PPIX” value ([13]; GR70N w.t., NBD[50 μM]) was 10 µg/mL and the “MIC Ga-PPIX” value ([13]; IR2885 (GO104 [phemR+]), NB) was less than 0.2 µg/mL. For the same compound, the “MIC Ga-PPIX” value ([13]; IR2885 (GO104 [phemR+]), NBD[50 μM]) was less than 0.02 µg/mL, the “MIC Ga-PPIX” value ([13]; IR2897 (GR70N [phemR+]), NB) was greater than 10 µg/mL and the “MIC Ga-PPIX” value ([13]; IR2897 (GR70N [phemR+]), NBD[50 μM]) was less than 0.1 µg/mL. The “MIC Ga-PPIX” value ([13]; IR2898 (GO103 [phemR+]), NB) was less than 0.2 µg/mL, the “MIC Ga-PPIX” value ([13]; IR2898 (GO103 [phemR+]), NBD[50 μM]) was less than 0.02 µg/mL and the “MIC Ga-PPIX” value ([13]; IR2899 (MWC215 [phemR+]), NB) was greater than 10 µg/mL. For the same compound, the “MIC Ga-PPIX” value ([13]; IR2899 (MWC215 [phemR+]), NBD[50 μM]) was less than 0.1 µg/mL, the “MIC Ga-PPIX” value ([13]; IR2976 (EC06 [phemR+]), NB) was greater than 30 µg/mL and the “MIC Ga-PPIX” value ([13]; IR2976 (EC06 [phemR+]), NBD[50 μM]) was 0.5 µg/mL. The “MIC Ga-PPIX” value ([13]; MWC215 (GR70N, ndh), NB) was 10 µg/mL, the “MIC Ga-PPIX” value ([13]; MWC215 (GR70N, ndh), NBD[50 μM]) was 10 µg/mL and the “higher MIC under iron-sufficient growth conditions” value ([13]; all other mutants) was 50 fold. For the same compound, the “sensitivity without an iron chelator” value ([13]; cytochrome cd and cyo single mutants) was “still sensitive” and the “sensitivity concentration of HemR-plasmid strains” value ([13]; slight iron restriction (0.05 mM dipyridyl)) was “less than 0.5 μg/ml”.
